Source: patent US4933332A, “11-desoxy-17-α-hydroxycorticosterone derivatives” (priority 1988, dated 1990)
Structures can show the parent of a compound that is named as a salt.

Key:
cell receptors = conditions: effects are reversible; cited from earlier work
mice fibroblasts L-929 = conditions: effects are reversible; cited from earlier work
La = test system: La; parameters: species or system mice and rats; conditions: in vivo
MOPG-406 = test: Antitumor effect on grafted hemoblastoses (MOPC-406), extension of lifespan; assay type: in vivo, mice and rats
P-388 = test: Antitumor effect on grafted hemoblastoses (P-388), extension of lifespan; assay type: in vivo, mice and rats
in vivo = conditions: mouse
L 1210 = test: Antitumor effect on grafted hemoblastoses (L 1210), extension of lifespan; assay type: in vivo, mice and rats
mice = conditions: mouse, in vivo
[1] = cited from earlier work
[2] = test system: adrenalectomized rat youngsters; test: Lifespan of adrenalectomized rat youngsters (biological test for the glucocorticoidal activity); assay type: in vivo; conditions: 25-days adrenalectomized rats
[3] = test system: Alveolar mammary cancer RMK-1; test: Antitumor effect on grafted alveolar mammary cancer RMK-1; assay type: in vivo, mice and rats
[4] = test system: Large intestine adenocarcinoma AKATOL; test: Antitumor effect on grafted large intestine adenocarcinoma AKATOL; assay type: in vivo, mice and rats
Lewis lung carcinoma LL = test: Antitumor effect on grafted Lewis lung carcinoma LL; assay type: in vivo, mice and rats
Ca-755 = test: Antitumor effect on grafted solid tumor Ca-755; assay type: in vivo, mice and rats
[5] = test system: Viral leukosis Mazurenko LMC-1; test: Antitumor effect on grafted hemoblastoses (LMC-1), extension of lifespan; assay type: in vivo, mice and rats; conditions: LMC-1; days 2-6 after grafting; effective dose range per compound, 24 h × 5
S-37 = test: Antitumor effect on grafted solid tumor S-37; assay type: in vivo, mice and rats
Hepatoma G-60 = test: Antitumor effect on grafted hepatoma G-60; assay type: in vivo, mice and rats
Hepatoma G-61 = test: Antitumor effect on grafted hepatoma G-61; assay type: in vivo, mice and rats
Hepatoma G-22c = test: Antitumor effect on grafted hepatoma G-22c; assay type: in vivo, mice and rats; conditions: G-22c; days 2-6; effective dose range per compound, 24 h × 5
S-180 = test system: S-180; parameters: species or system mice and rats; conditions: in vivo

C[C@]12CCC(=O)C=C1CC[C@@H]1[C@@H]2[C@@H](O)C[C@@]2(C)[C@H]1CC[C@]2(O)C(=O)COC(=O)N(CCCl)CCCl [11β,17α,21-trihydroxy-pregnene-4-3,20-dione-21-[bis(2-chloroethyl)carbamate]]
reaction with cell receptors (cell receptors): react with cell receptors | growth of cultures of mice fibroblasts L-929 (mice fibroblasts L-929): inhibit growth of cultures of mice fibroblasts L-929

CC1(C)O[C@@H]2C[C@H]3[C@@H]4CCC5=CC(=O)C=C[C@]5(C)[C@@]4(F)[C@@H](O)C[C@]3(C)[C@]2(C(=O)COC(=O)N(CCCl)CCCl)O1 [9αF,11β,16α, 17α,26-tetraoxypregna-1,4-diene-3,20-dione-21-[bis-(2-chloroethyl)carbamate], 16,17-acetonide]
reaction with cell receptors (cell receptors): react with cell receptors | growth of cultures of mice fibroblasts L-929 (mice fibroblasts L-929): inhibit growth of cultures of mice fibroblasts L-929

C[C@]12CCC(=O)C=C1CC[C@@H]1[C@@H]2CC[C@@]2(C)[C@H]1CC[C@]2(O)C(=O)COC(=O)CCCc1ccc(N(CCCl)CCCl)cc1 [11-desoxy-17α-hydroxy-21-[p-di(2-chloroethyl)aminophenylbutyrate] corticosterone]
Extension of the lifespan of the animals (ELA) (La): 18% | Extension of the lifespan of the animals (ELA) (MOPG-406; in vivo): 70% | Extension of the lifespan of the animals (ELA) (P-388; in vivo): 82% | MTD (in vivo): 350 mg/kg | Extension of the lifespan of the animals (ELA) (L 1210; in vivo): 20% | toxicity (relative) (mice): even lower toxicity

C[C@]12C=CC(=O)C=C1CC[C@@H]1[C@@H]2[C@@H](O)C[C@@]2(C)[C@H]1CC[C@]2(O)C(=O)COC(=O)CCCc1ccc(N(CCCl)CCCl)cc1 [Prednimustine, pregna-1,4-diene-3,20-dione, 11β17,21-trihydroxy-21-[p-di(2-chloroethyl)aminophenylbutyrate]]
hematotoxicity ([1]; in vivo): Hematotoxicity usually limiting administration | side effects ([1]; oncological clinic): associated mainly with hematotoxicity

C[C@]12CCC(=O)C=C1CC[C@@H]1[C@@H]2CC[C@@]2(C)[C@H]1CC[C@]2(O)C(=O)CO [11-Desoxy-17α-hydroxycorticosterone, 11-desoxy-17α-hydroxycorticosterone, reference compound]
extension of lifespan of adrenalectomized rat youngsters [2]: 115% | Maximum tumor growth inhibition ([3]; RMK-1, days 3-7, effective dose range per compound, 24 h × 5, "+" = stimulation of tumor growth): +4% | Maximum tumor growth inhibition ([4]; AKATOL, days 2-6, effective dose range per compound, 24 h × 5, "+" = stimulation of tumor growth): +41% | Maximum tumor growth inhibition (Lewis lung carcinoma LL; LL, days 2-6, effective dose range per compound, 24 h × 5): 28% | Maximum tumor growth inhibition (Ca-755; Ca-755, days 2-6, effective dose range per compound, 24 h × 5, "+" = stimulation of tumor growth): +105% | Extension of the lifespan of the animals (ELA) [5]: 17% | Maximum tumor growth inhibition (S-37; S-37, days 2-6, effective dose range per compound, 24 h × 5): 29% | Maximum tumor growth inhibition (Hepatoma G-60; G-60, days 6-10, effective dose range per compound, 24 h × 5): 38% | Extension of the lifespan of the animals (ELA) (MOPG-406; MOPG-406, days 2-6 after grafting, effective dose range per compound, 24 h × 5): 0% | Extension of the lifespan of the animals (ELA) (P-388; P-388, days 2-6 after grafting, effective dose range per compound, 24 h × 5): -7% | Maximum tumor growth inhibition (Hepatoma G-61; G-61, days 7-11, effective dose range per compound, 24 h × 5): 37% | Extension of the lifespan of the animals (ELA) (L 1210; L 1210, days 2-6 after grafting, effective dose range per compound, 24 h × 5): 6% | Maximum tumor growth inhibition (Hepatoma G-22c): 3%

C[C@]12CC[C@@H]3c4ccc(OC(=O)N(CCCl)CCCl)cc4CC[C@H]3[C@@H]1CC[C@@H]2OP(=O)(O)O [Estracyte, estra-1,3,5-(10)treine-3,17β-diol-3N-[bis-(2-chloroethyl)carbamate-17-sodium phosphate, reference compound]
Maximum tumor growth inhibition (Lewis lung carcinoma LL; in vivo): 29% | Maximum tumor growth inhibition (Ca-755; in vivo): +6% | Maximum tumor growth inhibition (S-37; in vivo): 85% | Maximum tumor growth inhibition (S-180): +23%

O=C(O)CCCc1ccc(N(CCCl)CCCl)cc1 [Chlorambucyl, p-di-(2-chloroethyl)aminophenylbutyric acid, reference compound]
MTD (in vivo): 25 mg/kg

NC(Cc1ccc(N(CCCl)CCCl)cc1)C(=O)O (stereo not drawn) [Sarcolysine, β-[p-di(2-chloroethyl)aminophenyl]-α-alanine hydrochloride, reference compound]
Maximum tumor growth inhibition ([3]; in vivo): +86% | Maximum tumor growth inhibition ([4]; in vivo): 56% | Maximum tumor growth inhibition (Lewis lung carcinoma LL; in vivo): 58% | Maximum tumor growth inhibition (Ca-755; in vivo): 83% | Maximum tumor growth inhibition (S-37; in vivo): 95% | Maximum tumor growth inhibition (Hepatoma G-60; in vivo): 90% | Maximum tumor growth inhibition (S-180): 76% | Maximum tumor growth inhibition (Hepatoma G-61; in vivo): 87%

C[C@]12C=CC(=O)C=C1CC[C@@H]1[C@@H]2[C@@H](O)C[C@@]2(C)[C@H]1CC[C@]2(O)C(=O)CO [Prednisolone, pregnadiene-1,4-triol-11β,17α,21-dione-3,20, reference compound]
Maximum tumor growth inhibition ([4]; in vivo): 67% | Maximum tumor growth inhibition (Lewis lung carcinoma LL; in vivo): 30% | Maximum tumor growth inhibition (Ca-755; in vivo): 70% | Maximum tumor growth inhibition (S-37; in vivo): 44% | Maximum tumor growth inhibition (Hepatoma G-61; in vivo): 44%
